The supplement of paper PMC11208160

Experiment: recombinant UMI read abundance after kanamycin selection (control-corrected) (log10(CPM+1)); higher = more efficient recombination; extreme values may be limits of the assay; sequences stand for … in AGTGCAGAGAAAATCGGCCAGTTTTCTCTGCCTGCAGTCCGCATGCCGTGGGACCCCTTGGGTTCTAACCTGTTGCCTAGATTTATGCAGCGGACTGCCTTTCTCCCAAAGTGATAAACCGG…AGGTTGGTTTCACT; site = the 11-nt donor
Outline: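 Values are reported as log10(CPM+1), obtained by converting sequencing counts to CPM, averaging replicates and scaling by control-derived factors. The counts came from recombinant UMIs amplified by PCR across the donor–target junction. These UMIs came from a pooled Escherichia coli screen of donor and donor-binding-loop pairs for the IS621 bridge recombinase, plated with IPTG (0.07 mM) plus kanamycin or left unselected, in two replicates each.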
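Also: IS621 bridge recombinase in Escherichia coli cells against a fixed T5 target plasmid.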

Sequence | recombinant UMI read abundance (log10)
CCGTCAACATGGACCGGTTTTCCCGGTAATCCGTATTTGCT (site CCGTCAACTAG) | 0
CCGTCGCCATGGACCGGTTTTCCCGGTAATCCGTATTTGTC (site CCGTCGCCTGA) | 0
CCGTTACCATGGACCGGTTTTCCCGGTAATCCGTATTTGAG (site CCGTTACCTCT) | 0.0156
CCGTTAGCATGGACCGGTTTTCCCGGTAATCCGTATTTGAG (site CCGTTAGCTCA) | 0.0714
CCGTTAGCATGGACCGGTTTTCCCGGTAATCCGTATTTGAG (site CCGTTAGCTCC) | 0.006
CCGTTAGCATGGACCGGTTTTCCCGGTAATCCGTATTTGAG (site CCGTTAGCTCG) | 0.00749
CCGTTAGCATGGACCGGTTTTCCCGGTAATCCGTATTTGAG (site CCGTTAGCTCT) | 0.692
CCGTTCGCATGGACCGGTTTTCCCGGTAATCCGTATTTGTG (site CCGTTAGCTCA) | 0.00765
CCGTTCGCATGGACCGGTTTTCCCGGTAATCCGTATTTGTG (site CCGTTCGCTCA) | 0.0261
CCGTTCGCATGGACCGGTTTTCCCGGTAATCCGTATTTGTG (site CCGTTGGCTCA) | 0.0144
CCGTTCGCATGGACCGGTTTTCCCGGTAATCCGTATTTGTG (site CCGTTTGCTCA) | 0.00651
CCGTTGGCATGGACCGGTTTTCCCGGTAATCCGTATTTGTG (site CCGTTAGCTCA) | 0.661
CCGTTGGCATGGACCGGTTTTCCCGGTAATCCGTATTTGTG (site CCGTTCGCTCA) | 0.0171
CCGTTGGCATGGACCGGTTTTCCCGGTAATCCGTATTTGTG (site CCGTTGGCTCA) | 0.286
CCGTTGGCATGGACCGGTTTTCCCGGTAATCCGTATTTGTG (site CCGTTTGCTCA) | 0.00375
CCGTTGTCATGGACCGGTTTTCCCGGTAATCCGTATTTGTC (site CCGTTGTCTGA) | 0
CCGTTTACATGGACCGGTTTTCCCGGTAATCCGTATTTGAT (site CCGTTTACTAA) | 0.0556
CCGTTTACATGGACCGGTTTTCCCGGTAATCCGTATTTGAT (site CCGTTTACTAC) | 0
CCGTTTACATGGACCGGTTTTCCCGGTAATCCGTATTTGAT (site CCGTTTACTAG) | 0
CCGTTTACATGGACCGGTTTTCCCGGTAATCCGTATTTGAT (site CCGTTTACTAT) | 0
CCTAAAGCATGGACCGGTTTTCCCGGTAATCCGTATTTGAA (site CCTAAAGCTAT) | 0
CCTAAAGCATGGACCGGTTTTCCCGGTAATCCGTATTTGAA (site CCTAAAGCTCT) | 0.00343
CCTAAAGCATGGACCGGTTTTCCCGGTAATCCGTATTTGAA (site CCTAAAGCTGT) | 0
CCTAAAGCATGGACCGGTTTTCCCGGTAATCCGTATTTGAA (site CCTAAAGCTTT) | 0.699
CCTAAAGCATGGACCGGTTTTCCCGGTAATCCGTATTTGTT (site CCTAAAGCTAA) | 0.0032

Sequence | recombinant UMI read abundance (log10)
CCTAAAGCATGGACCGGTTTTCCCGGTAATCCGTATTTGTT (site CCTAAAGCTAC) | 0
CCTAAAGCATGGACCGGTTTTCCCGGTAATCCGTATTTGTT (site CCTAAAGCTAG) | 0
CCTAAAGCATGGACCGGTTTTCCCGGTAATCCGTATTTGTT (site CCTAAAGCTAT) | 0.00347
CCTAACACATGGACCGGTTTTCCCGGTAATCCGTATTTGGC (site CCTAAAACTGC) | 0
CCTAACACATGGACCGGTTTTCCCGGTAATCCGTATTTGGC (site CCTAACACTGC) | 0
CCTAACACATGGACCGGTTTTCCCGGTAATCCGTATTTGGC (site CCTAAGACTGC) | 0
CCTAACACATGGACCGGTTTTCCCGGTAATCCGTATTTGGC (site CCTAATACTGC) | 0
CCTAACGCATGGACCGGTTTTCCCGGTAATCCGTATTTGAT (site CCTAAAGCTAT) | 0
CCTAACGCATGGACCGGTTTTCCCGGTAATCCGTATTTGAT (site CCTAACGCTAT) | 0
CCTAACGCATGGACCGGTTTTCCCGGTAATCCGTATTTGAT (site CCTAAGGCTAT) | 0
CCTAACGCATGGACCGGTTTTCCCGGTAATCCGTATTTGAT (site CCTAATGCTAT) | 0
CCTAATCCATGGACCGGTTTTCCCGGTAATCCGTATTTGGC (site CCTAATACTGC) | 0
CCTAATCCATGGACCGGTTTTCCCGGTAATCCGTATTTGGC (site CCTAATCCTGC) | 0
CCTAATCCATGGACCGGTTTTCCCGGTAATCCGTATTTGGC (site CCTAATGCTGC) | 0
CCTAATCCATGGACCGGTTTTCCCGGTAATCCGTATTTGGC (site CCTAATTCTGC) | 0
CCTACAACATGGACCGGTTTTCCCGGTAATCCGTATTTGAA (site CCTACAACTTT) | 0.0165
CCTACTACATGGACCGGTTTTCCCGGTAATCCGTATTTGGC (site CCTAATACTGC) | 0
CCTACTACATGGACCGGTTTTCCCGGTAATCCGTATTTGGC (site CCTACTACTGC) | 0
CCTACTACATGGACCGGTTTTCCCGGTAATCCGTATTTGGC (site CCTAGTACTGC) | 0
CCTACTACATGGACCGGTTTTCCCGGTAATCCGTATTTGGC (site CCTATTACTGC) | 0
CCTACTTCATGGACCGGTTTTCCCGGTAATCCGTATTTGAT (site CCTACTTCTAT) | 0
CCTATACCATGGACCGGTTTTCCCGGTAATCCGTATTTGCG (site CCTATACCTCG) | 0.0152
CCTATAGCATGGACCGGTTTTCCCGGTAATCCGTATTTGAT (site CCTAAAGCTAT) | 0
CCTATAGCATGGACCGGTTTTCCCGGTAATCCGTATTTGAT (site CCTACAGCTAT) | 0
CCTATAGCATGGACCGGTTTTCCCGGTAATCCGTATTTGAT (site CCTAGAGCTAT) | 0.0174

Sequence | recombinant UMI read abundance (log10)
CCTATAGCATGGACCGGTTTTCCCGGTAATCCGTATTTGAT (site CCTATAGCTAT) | 0.00747
CCTATTACATGGACCGGTTTTCCCGGTAATCCGTATTTGGC (site CCTAATACTGC) | 0
CCTATTACATGGACCGGTTTTCCCGGTAATCCGTATTTGGC (site CCTACTACTGC) | 0
CCTATTACATGGACCGGTTTTCCCGGTAATCCGTATTTGGC (site CCTAGTACTGC) | 0
CCTATTACATGGACCGGTTTTCCCGGTAATCCGTATTTGGC (site CCTATTACTGC) | 0
CCTATTTCATGGACCGGTTTTCCCGGTAATCCGTATTTGGC (site CCTATTTCTGC) | 0
CCTATTTCATGGACCGGTTTTCCCGGTAATCCGTATTTGTC (site CCTATTTCTGA) | 0
CCTCCAACATGGACCGGTTTTCCCGGTAATCCGTATTTGTA (site CCTCCAACTTA) | 0.0158
CCTCGGACATGGACCGGTTTTCCCGGTAATCCGTATTTGGG (site CCTCGGACTCC) | 0.0416
CCTCTAGCATGGACCGGTTTTCCCGGTAATCCGTATTTGTA (site CCTCTAGCTTA) | 0.352
CCTGAGACATGGACCGGTTTTCCCGGTAATCCGTATTTGAG (site CCTGAGACTCT) | 0.00693
CCTGGAACATGGACCGGTTTTCCCGGTAATCCGTATTTGTT (site CATGGAACTAA) | 0.0113
CCTGGAACATGGACCGGTTTTCCCGGTAATCCGTATTTGTT (site CCTGGAACTAA) | 0.00583
CCTGGAACATGGACCGGTTTTCCCGGTAATCCGTATTTGTT (site CGTGGAACTAA) | 0.00754
CCTGGAACATGGACCGGTTTTCCCGGTAATCCGTATTTGTT (site CTTGGAACTAA) | 0.00851
CCTGGTGCATGGACCGGTTTTCCCGGTAATCCGTATTTGAT (site CCAGGTGCTAT) | 0.00887
CCTGGTGCATGGACCGGTTTTCCCGGTAATCCGTATTTGAT (site CCCGGTGCTAT) | 0.00946
CCTGGTGCATGGACCGGTTTTCCCGGTAATCCGTATTTGAT (site CCGGGTGCTAT) | 0.00642
CCTGGTGCATGGACCGGTTTTCCCGGTAATCCGTATTTGAT (site CCTGGTGCTAT) | 0.494
CCTGTTCCATGGACCGGTTTTCCCGGTAATCCGTATTTGTC (site CCTGTTCCTGA) | 0
CCTGTTTCATGGACCGGTTTTCCCGGTAATCCGTATTTGAC (site CCTGTTTCTGT) | 0
CCTTAGCCATGGACCGGTTTTCCCGGTAATCCGTATTTGCC (site CCATAGCCTGG) | 0
CCTTAGCCATGGACCGGTTTTCCCGGTAATCCGTATTTGCC (site CCCTAGCCTGG) | 0
CCTTAGCCATGGACCGGTTTTCCCGGTAATCCGTATTTGCC (site CCGTAGCCTGG) | 0
CCTTAGCCATGGACCGGTTTTCCCGGTAATCCGTATTTGCC (site CCTTAGCCTGG) | 0
